Assay results reported in patent publication US5294603A, “Pharmaceutical compositions containing didemnins” (The Board of Trustees of The University of Illinois, priority 1992, dated 1994).
In brackets after ≈: the same amount, converted by molar mass. Where two headings read alike, the source gives them in different places. Numbered stars: 1 amine (or outer) side, 2 acyl side, 3 side chain; on linkers, the order of the positions; unused ones are H or OH. Bridge positions count the residues as written; N and C are the ends. Square brackets hold non-standard residues; d marks the D form. Peptide text beside a SMILES is read from it. * marks the point of attachment. X1 = CC[C@H](C)[C@@H](N[*:1])[C@@H](O)CC(=O)O[C@H](C(=O)[C@H](C)C(=O)[*:2])C(C)C; NMeY = CN[C@@H](Cc1ccc(O)cc1)C(=O)O; dNMeL = CN[C@H](CC(C)C)C(=O)O; X5 = O=C(Cc1ccccc1)C(=O)*; Isobutyryl = CC(C)C(=O)*; Aze = O=C(O)[C@@H]1CCN1; Pyruvoyl = CC(=O)C(=O)*; Propionyl = CCC(=O)*; Sar = CNCC(=O)O

Key:
[1] = system: cells of the VIV assay (not named)
[2] = system: L1210 murine leukemia cells; settings: Table 9
[3] = system: BHK = Baby hamster kidney cells
[4] = system: Nb2 cells, rat T-cell node lymphoma; test: Competitive binding with [3H]didemnin B to Nb2 cells; settings: 3 h at 37° C.
Protocol: The immunosuppressive assay was performed by measuring competitive binding of tested compounds with [^3 H]didemnin B to Nb2 cells, rat T-cell node lymphoma. See, Russell, D. H., et al., J. Immunology, 1987, 138, 276-284.
^a Competing didemnins incubated with approximately 25 ng of [^3

[5] = system: DNA synthesis in Nb2 node lymphoma cells; test: Inhibition of ongoing DNA synthesis in prolactin-stimulated Nb2 cells; format: cell-based, rat; settings: Nb2 cells stimulated with prolactin for 24 h
Protocol: Also inhibitions of protein and DNA synthesis of several compounds were measured using Nb2 node lymphoma cells which were stimulated by a treatment of cells with prolactin. (ibid.)
^a Nb2 cells were stimulated with prolactin for 24 h, then exposed to
^b 50% Inhibitory concentration, calculated with linear regression

[6] = system: L1210; test: L1210 cytotoxicity, inhibition at fixed doses (Table 10); format: cell-based, murine
[7] = system: L1210
[8] = system: Visna virus (VIV); format: cell-based; design: key to % Protection / VIV Protection: I, indeterminate
[9] = system: L1210 cells

Compound | Cytotoxicity L1210 IC50 [2] | BHK [3] | Inhibition of [3H]didemnin B binding (%) ([4]; 0.001 μg/mL) | Inhibition of [3H]didemnin B binding (%) ([4]; 0.01 μg/mL) | Inhibition of [3H]didemnin B binding (%) ([4]; 0.1 μg/mL) | Inhibition of [3H]didemnin B binding (%) ([4]; 1 μg/mL) | VIV Protection [8] | also measured
Cc1cn([C@H]2C[C@H](N=[N+]=[N-])[C@@H](CO)O2)c(=O)[nH]c1=O [AZT, reference compound] | – | – | – | – | – | – | – | % Cytotoxicity ([1]; 1 µM): 5; % Cytotoxicity ([1]; 3 µM): 7; % Cytotoxicity ([1]; 10 µM): 11; % Cytotoxicity ([1]; 30 µM): 14
CC[C@H](C)[C@H]1NC(=O)[C@@H](NC(=O)[C@@H](CC(C)C)N(C)C(=O)[C@H]2CCCN2C(=O)C(C)C)[C@@H](C)OC(=O)[C@H](Cc2ccc(OC)cc2)N(C)C(=O)[C@@H]2CCCN2C(=O)[C@H](CC(C)C)NC(=O)[C@@H](C)C(=O)[C@H](C(C)C)OC(=O)C[C@@H]1O [[Isobutyryl^9 -D-Pro^8]didemnin B] (Isobutyryl-[dP][dNMeL]T[X1]LP[NMeY](Me); ester 3-C) | 10 ng/mL | 0, PT | 0% | 0% | 25% | 69% | – | –
CC[C@H](C)[C@H]1NC(=O)[C@@H](NC(=O)[C@@H](CC(C)C)NC)[C@@H](C)OC(=O)[C@H](Cc2ccc(OC)cc2)N(C)C(=O)[C@@H]2CCCN2C(=O)[C@H](CC(C)C)NC(=O)[C@@H](C)C(=O)[C@H](C(C)C)OC(=O)C[C@@H]1O [Didemnin A (1), Didemnin A, reference compound] (H-[dNMeL]T[X1]LP[NMeY](Me); ester 2-C) | 30 ng/mL | – | 3% | 8% | 20% | 35% | < 0 | IC50 DNA [5]: 2000 ng/mL (≈ 2120 nM); Inhibition (%) ([6]; dose 25 ng/mL, tested 4/22/1990): 80%; Inhibition (%) ([6]; dose 250 ng/mL, tested 4/22/1990): 100%; Cytotoxicity percent L1210 inhibition ([7]; dose 5 ng/mL): 0%; Cytotoxicity percent L1210 inhibition ([7]; dose 12.5 ng/mL): 19%; Cytotoxicity percent L1210 inhibition ([7]; dose 25 ng/mL): 25%
CC[C@H](C)[C@H]1NC(=O)[C@@H](NC(=O)[C@@H](CC(C)C)N(C)C(=O)[C@@H]2CCN2C(=O)C(C)=O)[C@@H](C)OC(=O)[C@H](Cc2ccc(OC)cc2)N(C)C(=O)[C@@H]2CCCN2C(=O)[C@H](CC(C)C)NC(=O)[C@@H](C)C(=O)[C@H](C(C)C)OC(=O)C[C@@H]1O [Pyruv-Azt-DA, Pyruv-Azt Didemnin A] (Pyruvoyl-[Aze][dNMeL]T[X1]LP[NMeY](Me); ester 3-C) | – | – | – | – | – | – | – | IC50 [9]: 0.6 ng/mL (≈ 0.547 nM); % Protection [8]: I; % Cytotoxicity [1]: 77
CC[C@H](C)[C@H]1NC(=O)[C@@H](NC(=O)[C@@H](CC(C)C)N(C)C(=O)[C@@H]2CCCN2C(=O)C(=O)Cc2ccccc2)[C@@H](C)OC(=O)[C@H](Cc2ccc(OC)cc2)N(C)C(=O)[C@@H]2CCCN2C(=O)[C@H](CC(C)C)NC(=O)[C@@H](C)C(=O)[C@H](C(C)C)OC(=O)C[C@@H]1O [Phepyruv-Pro-DA, PhePyruv-Pro Didemnin A] (X5-P[dNMeL]T[X1]LP[NMeY](Me); ester 3-C) | – | – | – | – | – | – | – | IC50 [9]: 3.5 ng/mL (≈ 2.95 nM); cytotoxicity compared with DDB [9]: only partially active; % Protection [8]: I
COc1ccc(C[C@H]2C(=O)O[C@H](C)[C@H](NC(=O)C(CC(C)C)N(C)C(=O)[C@@H]3CCCN3C(=O)[C@H](C)O)C(=O)N[C@H](C(C)C)[C@@H](O)CC(=O)O[C@@H](C(C)C)C(=O)[C@H](C)C(=O)N[C@@H](CC(C)C)C(=O)N3CCC[C@H]3C(=O)N2C)cc1 (stereo partly shown) [Nordidemnin B (22), Nordidemnin B] | 1 ng/mL | 0, PT | – | – | – | – | -25 | –
CC[C@H](C)[C@H]1NC(=O)[C@@H](NC(=O)[C@@H](CC(C)C)N(C)C(=O)CN(C)C(=O)C(C)=O)[C@@H](C)OC(=O)[C@H](Cc2ccc(OC)cc2)N(C)C(=O)[C@@H]2CCCN2C(=O)[C@H](CC(C)C)NC(=O)[C@@H](C)C(=O)[C@H](C(C)C)OC(=O)C[C@@H]1O [Pyruv-Sar-DA, Pyruv-Sar Didemnin A] (Pyruvoyl-[Sar][dNMeL]T[X1]LP[NMeY](Me); ester 3-C) | – | – | – | – | – | – | – | IC50 [9]: 1 ng/mL (≈ 0.922 nM); cytotoxicity [9]: completely inactive; % Protection [8]: I
CC[C@H](C)[C@H]1NC(=O)[C@@H](NC(=O)[C@@H](CC(C)C)NC)[C@@H](C)OC(=O)[C@H](Cc2ccc(OC)cc2)N(C)C(=O)[C@@H]2CCCN2C(=O)[C@H](CC(C)C)NC(=O)[C@@H](C)C(=O)[C@H](C(C)C)OC(=O)C[C@@H]1OC(C)=O [O-Acetyldidemnin A (114), O-Acetyldidemnin A] | 300 ng/mL | 0, PT | 1% | 4% | 15% | 10% | – | IC50 DNA [5]: 270,000 ng/mL
CC[C@H](C)[C@H]1NC(=O)[C@@H](NC(=O)[C@@H](CC(C)C)N(C)C(=O)[C@@H](N)CC(C)C)[C@@H](C)OC(=O)[C@H](Cc2ccc(OC)cc2)N(C)C(=O)[C@@H]2CCCN2C(=O)[C@H](CC(C)C)NC(=O)[C@@H](C)C(=O)[C@H](C(C)C)OC(=O)C[C@@H]1O [N-(L-Leu)Didemnin A (99), N-(L-Leu)didemnin A] (H-L[dNMeL]T[X1]LP[NMeY](Me); ester 3-C) | 4 ng/mL | 0, PT | – | – | – | – | – | –
CC[C@H](C)[C@H]1NC(=O)[C@@H](NC(=O)[C@@H](CC(C)C)N(C)C(=O)[C@@H]2CCCN2C(C)=O)[C@@H](C)OC(=O)[C@H](Cc2ccc(OC)cc2)N(C)C(=O)[C@@H]2CCCN2C(=O)[C@H](CC(C)C)NC(=O)[C@@H](C)C(=O)[C@H](C(C)C)OC(=O)C[C@@H]1O [[Acetyl^9]Didemnin B (103), [Acetyl^9]didemnin B] (Ac-P[dNMeL]T[X1]LP[NMeY](Me); ester 3-C) | 0.2 ng/mL | – | 3% | 2% | 67% | 85% | -123 | –
CC[C@H](C)[C@H]1NC(=O)[C@@H](NC(=O)[C@@H](CC(C)C)N(C)C(=O)[C@@H]2CCCN2)[C@@H](C)OC(=O)[C@H](Cc2ccc(OC)cc2)N(C)C(=O)[C@@H]2CCCN2C(=O)[C@H](CC(C)C)NC(=O)[C@@H](C)C(=O)[C@H](C(C)C)OC(=O)C[C@@H]1O [N-(L-Pro)Didemnin A (100), N-(L-Prolyl) didemnin A] (H-P[dNMeL]T[X1]LP[NMeY](Me); ester 3-C) | 4 ng/mL | 0, PT | – | – | – | – | < 0 | –
CCC(=O)N1CCC[C@H]1C(=O)N(C)[C@H](CC(C)C)C(=O)N[C@@H]1C(=O)N[C@H]([C@@H](C)CC)[C@@H](O)CC(=O)O[C@@H](C(C)C)C(=O)[C@H](C)C(=O)N[C@@H](CC(C)C)C(=O)N2CCC[C@H]2C(=O)N(C)[C@@H](Cc2ccc(OC)cc2)C(=O)O[C@@H]1C [[Propionyl^9] Didemnin B (104), [Propionyl^9]didemnin B] (Propionyl-P[dNMeL]T[X1]LP[NMeY](Me); ester 3-C) | 0.2 ng/mL | 0, PT | – | – | – | – | -113 | –
Didemnin D [Didemnin D (19)] | 0.5 ng/mL | – | – | – | – | – | -53 | –
CC[C@H](C)[C@H]1NC(=O)[C@@H](NC(=O)[C@@H](CC(C)C)N(C)C(=O)[C@@H]2CCCN2C(=O)C(C)O)[C@@H](C)OC(=O)[C@H](Cc2ccc(OC)cc2)N(C)C(=O)[C@@H]2CCCN2C(=O)[C@H](CC(C)C)NC(=O)[C@@H](C)C(=O)[C@H](C(C)C)OC(=O)C[C@@H]1O (stereo partly shown) [Didemnin B (17), Didemnin B, reference compound] | 0.5 ng/mL | – | 3% | 7% | 59% | 77% | – | IC50 DNA [5]: 90 ng/mL (≈ 80.9 nM); IC50 [9]: 0.5 ng/mL (≈ 0.449 nM); Inhibition (%) ([6]; dose 25 ng/mL, tested 4/18/1991): 99%; Inhibition (%) ([6]; dose 250 ng/mL, tested 4/18/1991): 99%; Cytotoxicity percent L1210 inhibition ([7]; dose 5 ng/mL): 93%; Cytotoxicity percent L1210 inhibition ([7]; dose 12.5 ng/mL): 95%; Cytotoxicity percent L1210 inhibition ([7]; dose 25 ng/mL): 95%
Nordidemnin A [Nordidemnin A (21)] | 30 ng/mL | – | – | – | – | – | – | VIV Protection ([8]; Table 9, 0.1 μg/mL): < 0%
Didemnin X [Didemnin X (10)] | 2 ng/mL | – | – | – | – | – | -25 | –
